Source: patent US9682929B2, “Metalloprotease inhibitors, methods for producing same, and therapeutics uses thereof” (Centre National de la Recherche Scientifique-CNRS, priority 2013, dated 2017)

Tests used:
gelatinase MMP-9 = target: T1, gelatinase MMP-9 (Homo sapiens, UniProt P14780); test: Test for enzymatic inhibition of MMP-9 (colorimetric, thiopeptide substrate/DTNB); assay type: biochemical; conditions: purified human enzyme; for IC50: 1 h preincubation, 150 μM substrate, read-out: IC50 MMP9; for Ki: read-out: Ki MMP9
T1 construct: purchased Anaspec, USA
T1 sequence (P14780 94-707): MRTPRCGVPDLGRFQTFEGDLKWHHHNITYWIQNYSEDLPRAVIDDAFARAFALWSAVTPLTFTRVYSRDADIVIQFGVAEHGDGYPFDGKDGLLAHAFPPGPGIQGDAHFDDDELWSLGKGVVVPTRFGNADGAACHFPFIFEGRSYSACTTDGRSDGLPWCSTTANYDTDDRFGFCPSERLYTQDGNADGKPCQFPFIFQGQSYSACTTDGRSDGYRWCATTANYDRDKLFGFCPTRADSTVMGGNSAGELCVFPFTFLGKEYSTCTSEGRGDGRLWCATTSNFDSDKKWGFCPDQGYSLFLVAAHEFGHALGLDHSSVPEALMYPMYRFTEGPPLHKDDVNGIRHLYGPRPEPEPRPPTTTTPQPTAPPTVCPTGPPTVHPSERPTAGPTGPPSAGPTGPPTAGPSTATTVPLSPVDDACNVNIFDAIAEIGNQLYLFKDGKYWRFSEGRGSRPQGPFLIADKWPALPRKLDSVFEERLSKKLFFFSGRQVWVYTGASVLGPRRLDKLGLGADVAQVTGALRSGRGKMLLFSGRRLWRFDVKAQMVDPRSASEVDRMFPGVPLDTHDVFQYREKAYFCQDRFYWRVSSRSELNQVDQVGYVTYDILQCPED
Procedure: (§1) Protocols of the Tests for Enzymatic Inhibition of MMP-9 and MMP-12
(§2) The enzymatic tests for screening compounds 1 to 7 were carried out in solution on two purified human enzymes: the gelatinase MMP-9 (Anaspec, USA) and the metalloelastase MMP-12 (Anaspec, USA).
(§3) The principle is based on the cleavage, by the MMP-9 or MMP-12 enzyme, of a chromogenic substrate: the thiopeptide (Ac-Pro-Leu-Gly-[2-mercapto-4-methylpentanoyl]-Leu-Gly-OC2H5) (Enzo Life Sciences, USA).
(§4) The hydrolysis of this thiopeptide produces a sulfhydryl group which reacts with Ellman's reagent: 5,5′-dithiobis(2-nitrobenzoic acid) (DTNB) to form 2-nitro-5-thiobenzoic acid (TNB), which is detected by its absorbance at 412 nm
(§5) The tests are carried out in the buffer 50 mM Hepes, 10 mM CaCl2, 0.5% Brij35, 1 mM DTNB, pH 7.0 containing the purified MMP-9 and MMP-12 enzymes diluted to the final concentration of 0.8 μg/ml.
(§6) After preincubation of the enzymes (1 h at ambient temperature in the dark) with or without the products tested (minimum of four doses serially diluted one-in-ten), the cleavage reactions are initiated by adding 150 μM (final concentration) of substrate in a total final volume of 100 μl (96-well plate format).
(§7) The plates containing the reactions are read in a microplate reader (Multiskan Ascent, ThermoElectron, France) in order to continuously measure the absorbance and to record values every […] for 3 h. Each condition is carried out in triplicate.
(§8) The concentration which inhibits 50% of the reaction (IC50) is determined from curves representing the absorbance (optical density) of the final reaction product (TNB) as a function of the doses tested. Each experiment is carried out at least twice.

metalloelastase MMP-12 = target: T2, metalloelastase MMP-12 (Homo sapiens, UniProt P39900); test: Test for enzymatic inhibition of MMP-12 (colorimetric, thiopeptide substrate/DTNB); assay type: biochemical; conditions: purified human enzyme; for IC50: 1 h preincubation, 150 μM substrate, read-out: IC50 MMP12; for Ki: read-out: Ki MMP12
T2 construct: purchased Anaspec, USA
T2 sequence (P39900 106-470): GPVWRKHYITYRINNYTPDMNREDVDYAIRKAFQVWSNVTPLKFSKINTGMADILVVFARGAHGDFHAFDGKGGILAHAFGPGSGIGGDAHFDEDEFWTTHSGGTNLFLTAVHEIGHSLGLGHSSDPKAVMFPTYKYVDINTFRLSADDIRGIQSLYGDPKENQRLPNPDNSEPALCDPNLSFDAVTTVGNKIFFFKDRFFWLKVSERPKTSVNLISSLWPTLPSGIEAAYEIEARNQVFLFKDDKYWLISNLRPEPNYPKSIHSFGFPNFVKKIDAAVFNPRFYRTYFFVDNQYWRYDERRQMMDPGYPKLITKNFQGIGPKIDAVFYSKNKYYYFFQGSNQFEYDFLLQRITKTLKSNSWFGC
Procedure: as §1, §2, §3, §4, §5, §6, §7, §8

IC50 (gelatinase MMP-9) [µM] | Ki (gelatinase MMP-9) [µM] | IC50 (metalloelastase MMP-12) [µM] | Ki (metalloelastase MMP-12) [µM] | Structure (SMILES)
19.8 | 9.78 | 22.3 | 11.4 | C=C[C@H](C(=O)N[C@@H](Cc1ccccc1)C(=O)NO)[C@H](O)c1cc(OCc2ccc(OC)cc2)n(-c2ccccc2)n1 [Compound 5, (S)-2-((S)-hydroxy-(5-(4-methoxybenzyloxy)-1-phenyl-1H-pyrazol-3-yl)methyl)-N—((S)-1-(hydroxyamino)-1-oxo-3-phenylpropan-2-yl)but-3-enamide]
13.1 | 6.47 | 6.3 | 3.21 | C=C[C@H](C(=O)N[C@@H](CC(=O)O)C(=O)O)[C@H](O)c1cc(OCc2ccc(OC)cc2)n(-c2ccccc2)n1 [Compound 6, (S)-2-((S)-2-((S)-hydroxy-(5-(4-methoxybenzyloxy)-1-phenyl-1H-pyrazol-3-yl)methyl)but-3-enamido)succinic acid]
18.1 | 8.95 | 19.5 | 9.95 | C=C[C@H](C(=O)N[C@@H](Cc1ccccc1)C(=O)NC1CCCCC1)[C@@H](C)O [Compound 1, (S)—N—((S)-1-(cyclohexylamino)-1-oxo-3-phenylpropan-2-yl)-2-((R)-1-hydroxyethyl)but-3-enamide]
259 | 128 | 20.2 | 10.3 | C=C[C@H](C(=O)N[C@@H](Cc1ccccc1)C(=O)O)[C@H](O)c1cc(OCc2ccc(OC)cc2)n(-c2ccccc2)n1 [Compound 4, (S)-2-((S)-2-((S)-hydroxy-(5-(4-methoxybenzyloxy)-1-phenyl-1H-pyrazol-3-yl)methyl)but-3-enamido)-3-phenylpropanoic acid]
5 | 2.47 | 7.23 | 3.68 | C=C[C@H](C(=O)N[C@@H](Cc1ccccc1)C(=O)NC1CCCCC1)[C@H](O)c1cc(OCc2ccc(OC)cc2)n(-c2ccccc2)n1 [Compound 3, (S)—N—((S)-1-(cyclohexylamino)-1-oxo-3-phenylpropan-2-yl)-2-((S)-hydroxy(5-(4-methoxybenzyloxy)-1-phenyl-1H-pyrazol-3-yl)methyl)but-3-enamide]
126 | 62.2 | 20 | 10.2 | C=C[C@H](C(=O)N[C@@H](Cc1ccccc1)C(=O)NC1CCCCC1)[C@H](O)c1ccc(-c2ccccc2)cc1 [Compound 2, (S)-2-((S)-biphenyl-4-yl(hydroxy)methyl)-N—((S)-1-(cyclohexylamino)-1-oxo-3-phenylpropan-2-yl)but-3-enamide]
330 | 163 | 78.3 | 39.9 | C=C[C@H](C(=O)N[C@@H](CCSC)C(=O)O)[C@H](O)CCCC [Compound 7, (S)-2-((2S,3R)-3-hydroxy-2-vinylheptanamido)-4-(methylthio)butanoic acid]
